According to paper PMC11697113, “The Hsc70 system maintains the synaptic SNARE protein SNAP-25 in an assembly-competent state and delays its aggregation [drawing 1]” (The Journal of Biological Chemistry, 2024):

Legend:
SNAP-25 = SNAP-25 aggregation kinetics by optical density; assay type: biochemical; settings: SNAP-25 (CS mutant) 50 μM alone, 37 °C, shaking 300 rpm, OD 360 nm, 20 mM phosphate buffer pH 7.4, 100 μM MgCl2, 100 mM KCl
Method: To test our hypothesis that Hsc70 inhibits SNAP-25 aggregation, we monitored the aggregation kinetics of recombinantly expressed SNAP-25 in the absence and presence of Hsc70 by following optical density at 360 nm (Fig. 2). […] This lag time was elongated to ∼65 h in the presence of Hsc70. In neurons, Hsc70 works in collaboration with its co-chaperone CSPα. […] (Fig. S2A). Apg2 is a member of the Hsp110 family, which is known to suppress protein aggregation ([36]). […] (Fig. S2B).
Figure 2 Hsc70 delays the aggregation of SNAP-25. Aggregation kinetics of SNAP-25 (50 μM) at 37 °C. Optical density of SNAP-25 was recorded at 360 nm in the absence (black) and in the presence of Hsc70 (5 μM, red), and Hsc70+CSPαJ (5 μM each, blue).
Aggregation of SNAP-25 at 50 μM was followed by measuring the A360 in a 96-well plate using a BioTek plate reader (BioTek), at 37 °C with shaking at 300 rpm, in the absence and presence of Hsc70 and CSPαJ at 5 μM each, and Apg2 at 0.5 μM. The aggregation buffer included 20 mM phosphate buffer pH 7.4, 100 μM MgCl2, and 100 mM KCl, and an ATP-experiment was carried out using regeneration system (5 mM 2-phosphoenolpyruvate, 0.05 mg/ml pyruvate kinase, and 5 mM ATP), as described previously ([51]).
Figure SI 2. Apg2 enhances the effect of Hsc70 on SNAP-25. (A) Aggregation kinetics of SNAP-25 (50 μM) at 37 °C. OD600 of SNAP-25 was recorded in the absence (black) and in the presence of Hsc70, Hsc70+CSPa-J (blue) and Hsc70+CSPa-J+Apg2 (turquoise). […]
concentrations are SNAP-25 (50 μM), Hsc70 (5 μM), CSPa-J (5 μM) and Apg2 (0.5 μM).
(B) Aggregation kinetics of SNAP-25 (50 μM) at 37 °C. OD600 of SNAP-25 was recorded in the absence (black) and in the presence of Apg2 (blue). […]

Hsc70 = target: T1, Hsc70 (Homo sapiens, UniProt P11142); assay: Native PAGE / Western blot of SNAP-25-Hsc70 complex; assay type: binding; settings: SNAP-25 10 μM, Hsc70 2 μM, anti-Hsc70 and anti-His Western blot
T1 construct: 6X His-tag (TEV-cleavable) (cleaved yes); made in house; host or cells: E. coli Rosetta (DE3)
T1 sequence (P11142 whole entry): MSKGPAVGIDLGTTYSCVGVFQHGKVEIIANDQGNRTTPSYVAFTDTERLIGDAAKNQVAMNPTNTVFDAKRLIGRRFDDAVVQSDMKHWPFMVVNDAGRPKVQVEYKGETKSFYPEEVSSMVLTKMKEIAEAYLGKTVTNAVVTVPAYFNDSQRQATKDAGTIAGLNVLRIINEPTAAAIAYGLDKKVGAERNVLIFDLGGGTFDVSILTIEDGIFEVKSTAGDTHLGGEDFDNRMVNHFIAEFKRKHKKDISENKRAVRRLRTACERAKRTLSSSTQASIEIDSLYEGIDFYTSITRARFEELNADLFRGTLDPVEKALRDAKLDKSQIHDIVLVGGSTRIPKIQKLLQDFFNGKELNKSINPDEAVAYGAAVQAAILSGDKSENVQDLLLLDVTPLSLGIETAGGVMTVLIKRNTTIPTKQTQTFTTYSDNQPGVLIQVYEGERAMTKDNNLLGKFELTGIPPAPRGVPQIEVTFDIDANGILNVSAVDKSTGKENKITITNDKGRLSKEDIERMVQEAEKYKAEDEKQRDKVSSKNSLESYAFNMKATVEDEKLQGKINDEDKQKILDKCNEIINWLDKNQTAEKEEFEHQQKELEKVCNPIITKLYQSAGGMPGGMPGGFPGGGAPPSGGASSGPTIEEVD
Method: Figure 3 Hsc70 forms complexes with SNAP-25.A, native PAGE of SNAP-25 (10 μM) in the presence and absence of Hsc70 (2 μM). The difference in signal intensity of His-SNAP25 probed with antibody is likely due to altered epitope exposure upon formation of the SNAP-25-Hsc70 complex. B, binding of SNAP-25 (black), SNAP-25 SNN (SNNFR, orange), and SNC (SNCFR, green)) fragments to Hsc70 by competition followed by fluorescence anisotropy. Increasing concentrations of the competitors were added to a complex of Hsc70 (5 μM) and FITC-p5 peptide (50 nM). Error bars represent SDs from three independent experiments.
Precast native PAGE gels (Bio-Rad, 4–20%) were used to separate proteins based on their conformation and charge. SNAP-25 (10 μM), Hsc70 (2 μM) and a mix of both samples were mixed with a nondenaturing loading buffer and directly loaded onto the gel without heating. Electrophoresis was carried out in Tris-glycine running buffer at 180V for approximately 1 h until the dye front reached the bottom of the gel. Gels were stained with Coomassie Brilliant Blue R-250 (Sigma-Aldrich) and destained in a methanol-acetic acid solution until clear bands were visible.

synaptosomal-associated 25 kDa protein [SNAP-25]
lag phase of SNAP-25 aggregation (SNAP-25): ~38 h | complex formation of His-SNAP-25 with Hsc70 (Hsc70): a complex can be seen
